Measured values as given in US20220169628A1 (University of Florida Research Foundation, Incorporated, priority 2019, published 2022).
Read-outs that look alike come from different tables or passages of the source.

Tests used:
RS4;11 cells = assay: Cell viability assay, MTS, 48 h, RS4;11; type: cell-based; details: 48 hours, read-out: IC50 (48 hours) RS4;11
Protocol: (§1) Acute lymphoblastic leukemia cells (MOLT-4 and RS4; 11) or small cell lung cancer (NCI-H146 or simply H146) were incubated with increasing concentrations of Bcl-xL degraders for 48 h. Cell viability was measured by tetrazolium-based MTS assay.

MOLT-4 cells = assay: Cell viability assay, MTS, 48 h, MOLT-4; type: cell-based; details: 48 hours, read-out: IC50 (48 hours) MOLT-4
Protocol: as §1

Row | IC50 (RS4;11 cells; Homo sapiens, RS4-11, 48 h) [nM] | IC50 (MOLT-4 cells; Homo sapiens, MOLT-4, 48 h) [nM] | Compound | IC50 (RS4;11 cells) [nM] | IC50 (MOLT-4 cells) [nM]
1 | 150 to 500 | 50 to 150 | Cc1ncsc1-c1ccc([C@H](C)NC(=O)[C@@H]2C[C@@H](O)CN2C(=O)[C@@H](NC(=O)CCCCCCCCC(=O)N2CCC(c3ccc(Cl)cc3)=C(CN3CCN(c4ccc(C(=O)NS(=O)(=O)c5ccc(N[C@H](CCN6CCOCC6)CSc6ccccc6)c(S(=O)(=O)C(F)(F)F)c5)cc4)CC3)C2)C(C)(C)C)cc1 [compound 83, (2S,4R)-1-((S)-2-(10-(4-(4-chlorophenyl)-5-((4-(4-(((4-(((R)-4-morpholino-1-(phenylthio)butan-2-yl)amino)-3-((trifluoromethyl)sulfonyl)phenyl)sulfonyl)carbamoyl)phenyl)piperazin-1-yl)methyl)-3,6-dihydropyridin-1(2H)-yl)-10-oxodecanamido)-3,3-dimethylbutanoyl)-4-hydroxy-N—((S)-1-(4-(4-methylthiazol-5-yl)phenyl)ethyl)pyrrolidine-2-carboxamide] |  | 
2 |  |  | (2S,4R)-1-((S)-2-(12-(4-(4-chlorophenyl)-5-((4-(4-(((4-(((R)-4-morpholino-1-(phenylthio)butan-2-yl)amino)-3-((trifluoromethyl)sulfonyl)phenyl)sulfonyl)carbamoyl)phenyl)piperazin-1-yl)methyl)-3,6-dihydropyridin-1(2H)-yl)-12-oxododecanamido)-3,3-dimethylbutanoyl)-4-hydroxy-N—((S)-1-(4-(4-methylthiazol-5-yl)phenyl)ethyl)pyrrolidine-2-carboxamide [Example 7] | 50 to 150 | 50 to 150
3 | < 50 | < 50 | CC1(CNC(=O)COCCOCCOCCNc2cccc3c2C(=O)N(C2CCC(=O)NC2=O)C3=O)CCC(c2ccc(Cl)cc2)=C(CN2CCN(c3ccc(C(=O)NS(=O)(=O)c4ccc(N[C@H](CCN5CCOCC5)CSc5ccccc5)c(S(=O)(=O)C(F)(F)F)c4)cc3)CC2)C1 (stereo partly drawn) [compound 78, 4-(4-((4′-chloro-4-(13-((2-(2,6-dioxopiperidin-3-yl)-1,3-dioxoisoindolin-4-yl)amino)-3-oxo-5,8,11-trioxa-2-azatridecyl)-4-methyl-3,4,5,6-tetrahydro-[1,1′-biphenyl]-2-yl)methyl)piperazin-1-yl)-N-((4-(((R)-4-morpholino-1-(phenylthio)butan-2-yl)amino)-3-((trifluoromethyl)sulfonyl)phenyl)sulfonyl)benzamide] |  | 
4 | 150 to 500 | > 500 | Cc1ncsc1-c1ccc([C@H](C)NC(=O)[C@@H]2C[C@@H](O)CN2C(=O)[C@@H](NC(=O)COCCOCCOCCOCC(=O)NCC2(C)CCC(c3ccc(Cl)cc3)=C(CN3CCN(c4ccc(C(=O)NS(=O)(=O)c5ccc(N[C@H](CCN6CCOCC6)CSc6ccccc6)c(S(=O)(=O)C(F)(F)F)c5)cc4)CC3)C2)C(C)(C)C)cc1 (stereo partly drawn) [degrader #9, N1-((4′-chloro-4-methyl-6-((4-(4-(((4-(((R)-4-morpholino-1-(phenylthio)butan-2-yl)amino)-3-((trifluoromethyl)sulfonyl)phenyl)sulfonyl)carbamoyl)phenyl)piperazin-1-yl)methyl)-2,3,4,5-tetrahydro-[1,1′-biphenyl]-4-yl)methyl)-N14-((S)-1-((2S,4R)-4-hydroxy-2-(((S)-1-(4-(4-methylthiazol-5-yl)phenyl)ethyl)carbamoyl)pyrrolidin-1-yl)-3,3-dimethyl-1-oxobutan-2-yl)-3,6,9,12-tetraoxatetradecanediamide] |  | 
5 | > 500 | > 500 | Cc1ncsc1-c1ccc([C@H](C)NC(=O)[C@@H]2C[C@@H](O)CN2C(=O)[C@@H](NC(=O)CCCCC#CC#CC2(C)CCC(c3ccc(Cl)cc3)=C(CN3CCN(c4ccc(C(=O)NS(=O)(=O)c5ccc(N[C@H](CCN6CCOCC6)CSc6ccccc6)c(S(=O)(=O)C(F)(F)F)c5)cc4)CC3)C2)C(C)(C)C)cc1 (stereo partly drawn) [degrader #11, (2S,4R)-1-((2S)-2-(9-(4′-chloro-4-methyl-6-((4-(4-(((4-(((R)-4-morpholino-1-(phenylthio)butan-2-yl)amino)-3-((trifluoromethyl)sulfonyl)phenyl)sulfonyl)carbamoyl)phenyl)piperazin-1-yl)methyl)-2,3,4,5-tetrahydro-[1,1′-biphenyl]-4-yl)nona-6,8-diynamido)-3,3-dimethylbutanoyl)-4-hydroxy-N—((S)-1-(4-(4-methylthiazol-5-yl)phenyl)ethyl)pyrrolidine-2-carboxamide] |  | 
6 | < 50 | < 50 | Cc1ncsc1-c1ccc([C@H](C)NC(=O)[C@@H]2C[C@@H](O)CN2C(=O)[C@@H](NC(=O)CCCCCC(=O)N2CCN(CC3(C)CCC(c4ccc(Cl)cc4)=C(CN4CCN(c5ccc(C(=O)NS(=O)(=O)c6ccc(N[C@H](CCN7CCOCC7)CSc7ccccc7)c(S(=O)(=O)C(F)(F)F)c6)cc5)CC4)C3)CC2)C(C)(C)C)cc1 (stereo partly drawn) [degrader #16, (2S,4R)-1-((2S)-2-(7-(4-((4′-chloro-4-methyl-6-((4-(4-(((4-(((R)-4-morpholino-1-(phenylthio)butan-2-yl)amino)-3-((trifluoromethyl)sulfonyl)phenyl)sulfonyl)carbamoyl)phenyl)piperazin-1-yl)methyl)-2,3,4,5-tetrahydro-[1,1′-biphenyl]-4-yl)methyl)piperazin-1-yl)-7-oxoheptanamido)-3,3-dimethylbutanoyl)-4-hydroxy-N—((S)-1-(4-(4-methylthiazol-5-yl)phenyl)ethyl)pyrrolidine-2-carboxamide] |  | 
7 | > 500 | > 500 | Cc1ncsc1-c1ccc([C@H](C)NC(=O)[C@@H]2C[C@@H](O)CN2C(=O)[C@@H](NC(=O)CCCC(=O)N2CCN(C(=O)C3(C)CCC(c4ccc(Cl)cc4)=C(CN4CCN(c5ccc(C(=O)NS(=O)(=O)c6ccc(N[C@H](CCN7CCOCC7)CSc7ccccc7)c(S(=O)(=O)C(F)(F)F)c6)cc5)CC4)C3)CC2)C(C)(C)C)cc1 (stereo partly drawn) [compound 63, (2S,4R)-1-((2S)-2-(5-(4-(4′-chloro-4-methyl-6-((4-(4-(((4-(((R)-4-morpholino-1-(phenylthio)butan-2-yl)amino)-3-((trifluoromethyl)sulfonyl)phenyl)sulfonyl)carbamoyl)phenyl)piperazin-1-yl)methyl)-2,3,4,5-tetrahydro-[1,1′-biphenyl]-4-carbonyl)piperazin-1-yl)-5-oxopentanamido)-3,3-dimethylbutanoyl)-4-hydroxy-N—((S)-1-(4-(4-methylthiazol-5-yl)phenyl)ethyl)pyrrolidine-2-carboxamide] |  | 
8 | < 50 | 150 to 500 | Cc1ncsc1-c1ccc([C@H](C)NC(=O)[C@@H]2C[C@@H](O)CN2C(=O)[C@@H](NC(=O)CCCCCC(=O)NC2CCN(CC3(C)CCC(c4ccc(Cl)cc4)=C(CN4CCN(c5ccc(C(=O)NS(=O)(=O)c6ccc(N[C@H](CCN7CCOCC7)CSc7ccccc7)c(S(=O)(=O)C(F)(F)F)c6)cc5)CC4)C3)CC2)C(C)(C)C)cc1 (stereo partly drawn) [degrader #37, N1-(1-((4′-chloro-4-methyl-6-((4-(4-(((4-(((R)-4-morpholino-1-(phenylthio)butan-2-yl)amino)-3-((trifluoromethyl)sulfonyl)phenyl)sulfonyl)carbamoyl)phenyl)piperazin-1-yl)methyl)-2,3,4,5-tetrahydro-[1,1′-biphenyl]-4-yl)methyl)piperidin-4-yl)-N7-((S)-1-((2S,4R)-4-hydroxy-2-(((S)-1-(4-(4-methylthiazol-5-yl)phenyl)ethyl)carbamoyl)pyrrolidin-1-yl)-3,3-dimethyl-1-oxobutan-2-yl)heptanediamide] |  | 
